Experimental data from ChEMBL document CHEMBL1131822, “Nonpeptidic HIV protease inhibitors: 6-alkyl-5,6-dihydropyran-2-ones possessing a novel and achiral 3-(2-t-butyl-5-methyl-4-sulfamate)phenylthio moiety” (Bioorg Med Chem Lett, 1999).

Columns and labels:
[1] = system: Human immunodeficiency virus 1; assay: In vitro inhibition of HIV-1 (IIIB) cytopathic effects in CEM (human leukemia) cells.; format: functional, organism-based; conditions: Human immunodeficiency virus 1, CCRF-CEM
[2] = biological target: T1, Human immunodeficiency virus type 1 protease (Human immunodeficiency virus 1, UniProt Q72874); assay: Tested in vitro for HIV protease (PR) binding affinity
[3] = In vitro Cytotoxicity against uninfected CEM (human leukemia) cells.; format: functional; conditions: CCRF-CEM, read-out: TC50 (the source's name)
[4] = Therapeutic index was determined; conditions: read-out: Therapeutic index
CYP2D6 [5] = assay: Inhibition of Cytochrome P450 2D6 at 100 uM; format: ADME
CYP2D6 [6] = assay: Inhibition of Cytochrome P450 2D6 at 1 uM; format: ADME
CYP3A4 [7] = biological target: T2, CYP3A4 (Homo sapiens, UniProt P08684); assay: Inhibition of Cytochrome P450 3A4 at 1 uM; format: ADME
CYP3A4 [8] = biological target: T2, CYP3A4; assay: Inhibition of Cytochrome P450 3A4 at 10 uM; format: ADME
CYP2D6 [9] = assay: Inhibition of Cytochrome P450 2D6 at 10 uM; format: ADME
CYP3A4 [10] = biological target: T2, CYP3A4; assay: Inhibition of Cytochrome P450 3A4 at 100 uM; format: ADME
CYP2C9 [11] = biological target: T3, CYP2C9 (Homo sapiens, UniProt P11712); assay: Inhibition of Cytochrome P450 2C9 at 100 uM; format: ADME
CYP2C9 [12] = biological target: T3, CYP2C9; assay: Inhibition of Cytochrome P450 2C9 at 1 uM; format: ADME
CYP2C9 [13] = biological target: T3, CYP2C9; assay: Inhibition of Cytochrome P450 2C9 at 10 uM; format: ADME
[14] = biological target: T1, Human immunodeficiency virus type 1 protease; assay: Compound was tested for binding affinity against HIV protease

T3 sequence (P11712 whole entry): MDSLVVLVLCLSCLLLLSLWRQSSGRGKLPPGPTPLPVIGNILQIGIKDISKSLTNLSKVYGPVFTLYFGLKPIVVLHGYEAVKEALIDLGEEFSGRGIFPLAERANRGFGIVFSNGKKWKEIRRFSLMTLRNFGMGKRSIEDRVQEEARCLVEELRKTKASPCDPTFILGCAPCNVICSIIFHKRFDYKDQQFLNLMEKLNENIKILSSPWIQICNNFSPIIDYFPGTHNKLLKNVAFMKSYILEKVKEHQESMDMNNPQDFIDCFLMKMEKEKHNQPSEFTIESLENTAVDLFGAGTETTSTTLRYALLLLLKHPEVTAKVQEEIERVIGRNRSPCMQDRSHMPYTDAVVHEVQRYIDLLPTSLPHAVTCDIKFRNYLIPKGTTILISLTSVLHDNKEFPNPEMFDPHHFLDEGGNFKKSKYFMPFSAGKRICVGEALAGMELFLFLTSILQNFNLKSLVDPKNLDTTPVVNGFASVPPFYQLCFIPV
T2 sequence (P08684 whole entry): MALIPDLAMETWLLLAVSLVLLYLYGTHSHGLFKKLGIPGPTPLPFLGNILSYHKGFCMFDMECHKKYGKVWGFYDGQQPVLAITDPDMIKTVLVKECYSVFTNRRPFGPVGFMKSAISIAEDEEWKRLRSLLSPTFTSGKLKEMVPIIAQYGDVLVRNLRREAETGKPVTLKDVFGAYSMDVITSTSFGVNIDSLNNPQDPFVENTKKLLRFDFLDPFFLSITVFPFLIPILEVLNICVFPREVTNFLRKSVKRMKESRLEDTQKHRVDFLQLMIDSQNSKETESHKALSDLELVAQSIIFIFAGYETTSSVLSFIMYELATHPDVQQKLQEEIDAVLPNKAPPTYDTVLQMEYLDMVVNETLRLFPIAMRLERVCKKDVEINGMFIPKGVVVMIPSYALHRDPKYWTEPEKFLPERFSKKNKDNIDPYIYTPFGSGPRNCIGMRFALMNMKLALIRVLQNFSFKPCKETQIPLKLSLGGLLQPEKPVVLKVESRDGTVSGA

SMILES | EC50 [1] [nM] | IC50 [2] [nM] | CC50 [3] [nM] | selectivity ratio [4] | inhibition at 100 µM (CYP2D6 [5]) [%] | inhibition at 1 µM (CYP2D6 [6]) [%] | inhibition at 1 µM (CYP3A4 [7]) [%] | inhibition at 10 µM (CYP3A4 [8]) [%] | inhibition at 10 µM (CYP2D6 [9]) [%] | inhibition at 100 µM (CYP3A4 [10]) [%] | inhibition at 100 µM (CYP2C9 [11]) [%] | inhibition at 1 µM (CYP2C9 [12]) [%] | inhibition at 10 µM (CYP2C9 [13]) [%] | Ki [14] [nM]
Cc1cc(SC2=C(O)OC(CCc3ccc(O)cc3)(C3CCCCC3)CC2=O)c(C(C)(C)C)cc1OS(=O)(=O)N(C)C (configuration not stated) | 5000 | 20 | 60000 | 12 | – | – | – | – | – | – | – | – | – | –
Cc1cc(SC2=C(O)OC(CCc3ccc(N)cc3)(C(C)C)CC2=O)c(C(C)(C)C)cc1OS(=O)(=O)N1CCN(C)CC1 (configuration not stated) | 560 | 1 | 71000 | 127 | – | – | – | – | – | – | – | – | – | –
CCCNS(=O)(=O)Oc1cc(C(C)(C)C)c(SC2=C(O)OC(CCc3ccc(O)cc3)(C(C)C)CC2=O)cc1C (configuration not stated) | 1200 | 3 | > 100000 | > 83 | – | – | – | – | – | – | – | – | – | –
Cc1cc(SC2=C(O)OC(CCc3ccc(O)cc3)(C(C)C)CC2=O)c(C(C)(C)C)cc1OS(=O)(=O)N(C)C (configuration not stated) | 700 | 3.4 | 70000 | 100 | – | – | – | – | – | – | – | – | – | –
Cc1cc(SC2=C(O)OC(CCc3ccc(O)cc3)(C(C)C)CC2=O)c(C(C)(C)C)cc1OS(=O)(=O)N1CCOCC1 (configuration not stated) | 770 | 2.6 | 84000 | 109 | – | – | – | – | – | – | – | – | – | –
Cc1cc(SC2=C(O)OC(CCc3ccc(O)cc3)(C(C)C)CC2=O)c(C(C)(C)C)cc1OS(=O)(=O)N1CCN(C)CC1 (configuration not stated) | 500 | 3.1 | > 100000 | > 200 | 100 | 39 | 0 | 22 | 86 | 81 | – | – | – | –
Cc1cc(SC2=C(O)OC(C)(CCc3ccc(O)cc3)CC2=O)c(C(C)(C)C)cc1OS(=O)(=O)N(C)C (configuration not stated) | 8200 | 1.6 | > 100000 | > 12 | – | – | – | – | – | – | – | – | – | –
Cc1cc(SC2=C(O)O[C@](CCc3ccc(N)cc3)(C(C)C)CC2=O)c(C(C)(C)C)cc1CO | 200 | 1 | – | 1050 | 33 | 3 | 4 | 16 | 16 | 30 | 59 | 2 | 12 | 0.11
Cc1cc(SC2=C(O)OC(C)(CCc3ccc(O)cc3)CC2=O)c(C(C)(C)C)cc1OS(=O)(=O)N1CCN(C)CC1 (configuration not stated) | 2300 | 7.1 | > 100000 | > 44 | – | – | – | – | – | – | – | – | – | –
CNS(=O)(=O)Oc1cc(C(C)(C)C)c(SC2=C(O)OC(CCc3ccc(O)cc3)(C(C)C)CC2=O)cc1C (configuration not stated) | 1100 | 1.2 | > 100000 | > 91 | – | – | – | – | – | – | – | – | – | –
CCNS(=O)(=O)Oc1cc(C(C)(C)C)c(SC2=C(O)OC(CCc3ccc(O)cc3)(c3ccccc3)CC2=O)cc1C (configuration not stated) | 4300 | 26 | 66000 | 15 | – | – | – | – | – | – | – | – | – | –
CCNS(=O)(=O)Oc1cc(C(C)(C)C)c(SC2=C(O)OC(C)(CCc3ccc(O)cc3)CC2=O)cc1C (configuration not stated) | 1500 | 2.3 | 66000 | 44 | 100 | 62 | 1 | 10 | 89 | 58 | 46 | 0 | 6 | –
Cc1cc(SC2=C(O)OC(C)(CCc3ccc(O)cc3)CC2=O)c(C(C)(C)C)cc1O (configuration not stated) | > 7000 | 6.5 | 7000 | < 1 | – | – | – | – | – | – | – | – | – | –
CCNS(=O)(=O)Oc1cc(C(C)(C)C)c(SC2=C(O)OC(CCc3ccc(N)cc3)(C(C)C)CC2=O)cc1C (configuration not stated) | 630 | 4.3 | 74000 | 117 | – | – | – | – | – | – | – | – | – | –
CCNS(=O)(=O)Oc1cc(C(C)(C)C)c(SC2=C(O)OC(CCc3ccccc3)(C(C)C)CC2=O)cc1C (configuration not stated) | 770 | 8.9 | 67000 | 87 | – | – | – | – | – | – | – | – | – | –
CCNS(=O)(=O)Oc1cc(C(C)(C)C)c(SC2=C(O)OC(CCc3ccc(O)cc3)(C(C)C)CC2=O)cc1C (configuration not stated) | 1100 | 4.9 | > 100000 | > 91 | – | – | – | – | – | – | – | – | – | –
Cc1cc(SC2=C(O)OC(CCc3ccccc3)(C(C)C)CC2=O)c(C(C)(C)C)cc1OS(=O)(=O)N1CCN(C)CC1 (configuration not stated) | 1650 | 3.9 | > 100000 | > 61 | – | – | – | – | – | – | – | – | – | –
Cc1cc(SC2=C(O)OC(CCc3ccc(O)cc3)(C3CCCCC3)CC2=O)c(C(C)(C)C)cc1OS(=O)(=O)N1CCN(C)CC1 (configuration not stated) | 5100 | 9.7 | > 100000 | > 20 | – | – | – | – | – | – | – | – | – | –
Cc1cc(SC2=C(O)OC(CCc3ccc(N)cc3)(C(C)C)CC2=O)c(C(C)(C)C)cc1OS(=O)(=O)N(C)C (configuration not stated) | 740 | 3.9 | 64000 | 86 | – | – | – | – | – | – | – | – | – | –
Cc1cc(SC2=C(O)OC(C)(CCc3ccc(O)cc3)CC2=O)c(C(C)(C)C)cc1OS(N)(=O)=O (configuration not stated) | 5200 | 1.8 | 69000 | 13 | – | – | – | – | – | – | – | – | – | –
CCNS(=O)(=O)Oc1cc(C(C)(C)C)c(SC2=C(O)OC(CCc3ccc(O)cc3)(C3CCCCC3)CC2=O)cc1C (configuration not stated) | 1400 | 4.8 | 67000 | 48 | – | – | – | – | – | – | – | – | – | –
CCCNS(=O)(=O)Oc1cc(C(C)(C)C)c(SC2=C(O)OC(C)(CCc3ccc(O)cc3)CC2=O)cc1C (configuration not stated) | 4300 | 6.2 | 66000 | 15 | – | – | – | – | – | – | – | – | – | –
